Results reported in the supplement of paper PMC10307832.

Tests used:
Test in all cases: relative viability (nuclei count vs DMSO), 5 days (fraction); higher = more cells survive
[1] = system: NCI-H1666
Method in brief: (§1)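 Lung cancer cell lines in 1536-well plates were dosed by pin tool the day after seeding, either with one drug alone or with a fixed anchor-drug dose plus five library-drug doses (not always all listed) in √10 steps. After 5 days, cells were fixed and their nuclei stained in one step (final 0.05% Triton X-100, 1% formaldehyde, 1 ug/ml Hoechst), then counted on 4× images. Relative viability is the nuclei count in treated wells divided by that in vehicle wells. Values are medians of duplicate plates.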

[2] = system: PC-3 [JPC-3]
Method in brief: as §1

[3] = system: NCI-H650
Method in brief: as §1

[4] = system: NCI-H2023
Method in brief: as §1

[5] = system: NCI-H2170
Method in brief: as §1

[6] = system: NCI-H441
Method in brief: as §1

[7] = system: NCI-H1755
Method in brief: as §1

[8] = system: NCI-H23
Method in brief: as §1

[9] = system: NCI-H1395
Method in brief: as §1

[10] = system: LOU-NH91
Method in brief: as §1

[11] = system: A-427
Method in brief: as §1

[12] = system: LCLC-97TM1
Method in brief: as §1

[13] = system: LU99A
Method in brief: as §1

[14] = system: NCI-H2126
Method in brief: as §1

[15] = system: NCI-H1793
Method in brief: as §1

[16] = system: SK-LU-1
Method in brief: as §1

[17] = system: NCI-H1915
Method in brief: as §1

[18] = system: BEN
Method in brief: as §1

[19] = system: LXF-289
Method in brief: as §1

[20] = system: NCI-H322M
Method in brief: as §1

[21] = system: NCI-H460
Method in brief: as §1

[22] = system: NCI-H1944
Method in brief: as §1

[23] = system: HARA
Method in brief: as §1

SMILES: Cc1cnc(-c2cnc(NCCNc3ccc(C#N)cn3)nc2-c2ccc(Cl)cc2Cl)[nH]1 + O=C(CCCCCCC(=O)Nc1ccccc1)NO [Vorinostat] (partner 1 µM)
- relative viability ([1]; first compound 0.08 µM): 0.899
- relative viability ([1]; first compound 0.253 µM): 1.05
- relative viability ([1]; first compound 0.8 µM): 0.964
- relative viability ([1]; first compound 2.53 µM): 1.1
- relative viability ([2]; first compound 0.08 µM): 0.811
- relative viability ([2]; first compound 0.253 µM): 0.713
- relative viability ([2]; first compound 0.8 µM): 0.726
- relative viability ([2]; first compound 2.53 µM): 0.838
- relative viability ([3]; first compound 0.08 µM): 0.544
- relative viability ([3]; first compound 0.253 µM): 0.423
- relative viability ([3]; first compound 0.8 µM): 0.4
- relative viability ([3]; first compound 2.53 µM): 0.443
- relative viability ([4]; first compound 0.08 µM): 0.897
- relative viability ([4]; first compound 0.253 µM): 0.473
- relative viability ([4]; first compound 0.8 µM): 0.465
- relative viability ([4]; first compound 2.53 µM): 0.731
- relative viability ([5]; first compound 0.08 µM): 0.837
- relative viability ([5]; first compound 0.8 µM): 0.734
- relative viability ([5]; first compound 2.53 µM): 0.714
- relative viability ([6]; first compound 0.08 µM): 0.823
- relative viability ([6]; first compound 0.8 µM): 0.737
- relative viability ([6]; first compound 2.53 µM): 0.738
- relative viability ([7]; first compound 0.08 µM): 0.826
- relative viability ([7]; first compound 0.253 µM): 0.684
- relative viability ([7]; first compound 0.8 µM): 0.745
- relative viability ([7]; first compound 2.53 µM): 0.823
- relative viability ([8]; first compound 0.08 µM): 0.568
- relative viability ([8]; first compound 0.253 µM): 0.475
- relative viability ([8]; first compound 0.8 µM): 0.575
- relative viability ([8]; first compound 2.53 µM): 0.529
- relative viability ([9]; first compound 0.08 µM): 0.847
- relative viability ([9]; first compound 0.253 µM): 0.577
- relative viability ([9]; first compound 0.8 µM): 0.62
- relative viability ([9]; first compound 2.53 µM): 0.6
- relative viability ([10]; first compound 0.08 µM): 0.972
- relative viability ([10]; first compound 0.253 µM): 0.878
- relative viability ([10]; first compound 0.8 µM): 0.942
- relative viability ([10]; first compound 2.53 µM): 0.978
- relative viability ([11]; first compound 0.08 µM): 0.868
- relative viability ([11]; first compound 0.253 µM): 0.826
- relative viability ([11]; first compound 0.8 µM): 0.826
- relative viability ([11]; first compound 2.53 µM): 0.854
- relative viability ([12]; first compound 0.08 µM): 0.712
- relative viability ([12]; first compound 0.253 µM): 0.462
- relative viability ([12]; first compound 0.8 µM): 0.515
- relative viability ([12]; first compound 2.53 µM): 0.515
- relative viability ([13]; first compound 0.08 µM): 0.592
- relative viability ([13]; first compound 0.253 µM): 0.523
- relative viability ([13]; first compound 0.8 µM): 0.535
- relative viability ([13]; first compound 2.53 µM): 0.559
- relative viability ([14]; first compound 0.08 µM): 0.775
- relative viability ([14]; first compound 0.253 µM): 0.695
- relative viability ([14]; first compound 0.8 µM): 0.703
- relative viability ([14]; first compound 2.53 µM): 0.819
- relative viability ([15]; first compound 0.08 µM): 0.59
- relative viability ([15]; first compound 0.253 µM): 0.666
- relative viability ([15]; first compound 0.8 µM): 0.739
- relative viability ([15]; first compound 2.53 µM): 0.864
- relative viability ([16]; first compound 0.08 µM): 0.735
- relative viability ([16]; first compound 0.253 µM): 0.818
- relative viability ([16]; first compound 0.8 µM): 0.849
- relative viability ([16]; first compound 2.53 µM): 0.85
- relative viability ([17]; first compound 0.08 µM): 0.532
- relative viability ([17]; first compound 0.8 µM): 0.504
- relative viability ([17]; first compound 2.53 µM): 0.513
- relative viability ([18]; first compound 0.08 µM): 0.575
- relative viability ([18]; first compound 0.253 µM): 0.559
- relative viability ([18]; first compound 0.8 µM): 0.595
- relative viability ([18]; first compound 2.53 µM): 0.559
- relative viability ([19]; first compound 0.08 µM): 0.737
- relative viability ([19]; first compound 0.253 µM): 0.693
- relative viability ([19]; first compound 0.8 µM): 0.734
- relative viability ([19]; first compound 2.53 µM): 0.846
- relative viability ([20]; first compound 0.08 µM): 0.843
- relative viability ([20]; first compound 0.253 µM): 0.878
- relative viability ([20]; first compound 0.8 µM): 0.874
- relative viability ([20]; first compound 2.53 µM): 1.53
- relative viability ([21]; first compound 0.08 µM): 0.71
- relative viability ([21]; first compound 0.253 µM): 0.618
- relative viability ([21]; first compound 0.8 µM): 0.625
- relative viability ([21]; first compound 2.53 µM): 0.58
- relative viability ([22]; first compound 0.08 µM): 0.591
- relative viability ([22]; first compound 0.8 µM): 0.614
- relative viability ([22]; first compound 2.53 µM): 0.566
- relative viability ([23]; first compound 0.08 µM): 0.659
- relative viability ([23]; first compound 0.253 µM): 0.612
- relative viability ([23]; first compound 0.8 µM): 0.487
- relative viability ([23]; first compound 2.53 µM): 0.492
